Tests used:
HEK293 cells [1] = experiment: Viability (Cell Titer, CellTiter-Glo); type: cell-based; settings: Homo sapiens, 48 h incubation, 96-well plate
Procedure: Viability (Cell Titer) was evaluated using a commercially available chemiluminescent reagents (CellTiter-Glo, Promega Corp. G7572) in 96-well plate format according to the manufacturers protocol. Cells were exposed to either vehicle or test agent at the indicated concentrations and incubated for a period of 48 h. Subsequently, CellTiter-Glo reagent was added and the plates were read using a plate reader (BioTek Synergy 4) with standard settings.

HEK293 cells [2] = experiment: Glutamine uptake inhibition assay (3H-labeled glutamine accumulation in live cells); type: cell-based; settings: Homo sapiens, 15 minutes incubation with 3H-GLN (500 nM), assay buffer pH 6, triplicate, read-out: ^3H Glut IC50
Procedure: Twenty-four hours prior to assay, HEK293 cells were seeded at a density of 12K cells per well into a 96 well plate (coated with poly-D-Lysine). […] Accumulation of 3H-labeled glutamine (3H-GLN) in live cells was assessed by incubation for 15 minutes with vehicle or test reagent at the concentrations indicated. The final concentration of 3H-GLN was 500 nM. Each compound was evaluated in triplicate. For the assay, cells were rinsed with assay buffer (pH 6) three times (100 uL). Compounds were transferred in a single-add protocol and incubated for 15 minutes with 3H-GLN. After the uptake period, the supernatant was removed and cell monolayers were washed 3× with 100 μl assay buffer. Subsequently, cells were lysed with 50 μl 1M NaOH and 150 μl scintillation liquid was added to each well. The plate was incubated at room temperature for 20 minutes, transferred to 4° C. storage overnight, and read the next day using a top-count plate reader (Perkin Elmer).

Structure (SMILES): N[C@@H](CCN(Cc1ccccc1OCc1ccc(Cl)cc1)Cc1ccccc1Oc1ccc(Cl)cc1)C(=O)O [Cpd. No. 11, (S)-2-amino-4-((2-((4-chlorobenzyl)oxy)benzyl)(2-(4-chlorophenoxy)benzyl)amino)butanoic acid]
- IC50 (HEK293 cells [1]): 12.7 µM
- IC50 (HEK293 cells [2]): < 100 µM

Structure (SMILES): COc1cccc(COc2ccccc2CN(CC[C@H](N)C(=O)O)Cc2ccccc2Oc2ccc(Cl)cc2)c1 [Cpd. No. 20, (S)-2-amino-4-((2-(4-chlorophenoxy)benzyl)(2-((3-methoxybenzyl)oxy)benzyl)amino) butanoic acid]
- IC50 (HEK293 cells [1]): 13.9 µM
- IC50 (HEK293 cells [2]): 3.19 µM

Structure (SMILES): Cc1cccc(COc2ccccc2CN(CC[C@H](N)C(=O)O)Cc2ccccc2Oc2ccc(Cl)cc2)c1 [Cpd. No. 21, (S)-2-amino-4-((2-(4-chlorophenoxy)benzyl)(2-((3-methylbenzyl)oxy)benzyl)amino) butanoic acid]
- IC50 (HEK293 cells [1]): 28.9 µM
- IC50 (HEK293 cells [2]): 25.1 µM

Structure (SMILES): N[C@@H](CCN(Cc1ccccc1OCc1ccccc1F)Cc1ccccc1Oc1ccccc1F)C(=O)O [compound 7, (S)-2-amino-4-((2-((2-fluorobenzyl)oxy)benzyl)(2-(2-fluorophenoxy)benzyl)amino)butanoic acid]
- IC50 (HEK293 cells [1]): 18.7 µM
- IC50 (HEK293 cells [2]): 94.2 µM

Structure (SMILES): N[C@@H](CCN(Cc1ccccc1OCc1ccc(F)cc1)Cc1ccccc1Oc1ccccc1F)C(=O)O [compound 8, (S)-2-amino-4-((2-((4-fluorobenzyl)oxy)benzyl)(2-(2-fluorophenoxy)benzyl)amino)butanoic acid]
- IC50 (HEK293 cells [2]): 117 µM

Structure (SMILES): N[C@@H](CCN(Cc1ccccc1OCc1ccccc1F)Cc1ccccc1Oc1ccc(Cl)cc1)C(=O)O [compound 10, (S)-2-amino-4-((2-(4-chlorophenoxy)benzyl)(2-((2-fluorobenzyl)oxy)benzyl)amino)butanoic acid]
- IC50 (HEK293 cells [2]): 43 µM

Structure (SMILES): COc1ccc(Oc2ccccc2CN(CC[C@H](N)C(=O)O)Cc2ccccc2OCc2ccc(F)cc2)cc1 [compound 13, (S)-2-amino-4-((2-((4-fluorobenzyl)oxy)benzyl)(2-(4-methoxyphenoxy)benzyl)amino)butanoic acid]
- IC50 (HEK293 cells [2]): 29 µM

Structure (SMILES): COc1ccc(Oc2ccccc2CN(CC[C@H](N)C(=O)O)Cc2ccccc2OCc2ccc(Cl)cc2)cc1 [compound 14, (S)-2-amino-4-((2-((4-chlorobenzyl)oxy)benzyl)(2-(4-methoxyphenoxy)benzyl)amino)butanoic acid]
- IC50 (HEK293 cells [2]): 164 µM

Structure (SMILES): N[C@@H](CCN(Cc1ccccc1OCc1ccc(F)cc1)Cc1ccccc1Oc1ccc(Cl)cc1)C(=O)O [compound 15, (S)-2-amino-4-((2-(4-chlorophenoxy)benzyl)(2-((4-fluorobenzyl)oxy)benzyl)amino)butanoic acid]
- IC50 (HEK293 cells [2]): 31.4 µM
